Test results reported in patent publication US10227331B2 (priority 2015, dated 2019).

Assays:
[1] = tested on: P. aeruginosa expressing IMP-1, efflux− (MB9799); assay: Efflux: concentration of MBL inhibitor which restores susceptibility to imipenem; format: cell-based, Pseudomonas aeruginosa; details: imipenem at 2 μg/mL, in the presence of a class A, C, D serine β-lactamase inhibitor closely related to relebactam
Description: (§1) The strain background is Pseudomonas aeruginosa PAO1.

[2] = tested on: P. aeruginosa expressing IMP-1, efflux+ (MB9798); format: cell-based, Pseudomonas aeruginosa; details: for P. aeruginosa expressing IMP-1, efflux+ (MB9798) MITC95: imipenem at 2 μg/mL, in the presence of a class A, C, D serine β-lactamase inhibitor closely related to relebactam; for Efflux ratio: ratio MITC95 PA_9798/MITC95 PA_9799
Description: as §1

VIM-1 = VIM-1 (Pseudomonas aeruginosa (strain ATCC 15692 / DSM 22644 / CIP 104116 / JCM 14847 / LMG 12228 / 1C / PRS 101 / PAO1), UniProt A0A0F7KYQ8); assay: biochemical; details: CCF2-FA substrate, 2 hours at 25° C
Procedure, shortened: (§2)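 Enzyme activity was measured by fluorescence using CCF2-FA, a cephalosporin-linked 7-hydroxycoumarin/fluorescein substrate, with inhibitor, metallo-β-lactamase and substrate incubated together for 2 hours at 25° C. IC50 came from a 4-parameter fit of inhibition versus log inhibitor concentration.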

[3] = tested on: Serratia marcescens expressing IMP-1 (CL5741); format: cell-based; details: with imipenem 1 μg/ml; 95% inhibition of bacterial growth
Procedure, shortened: (§3)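 Restoration of imipenem susceptibility (1 μg/ml imipenem) was judged by absorbance after 22–24 h at 35° C. Test compound was added to bacteria suspended 1:100 in 1.1× CAMHB from overnight blood-agar cultures.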

[4] = tested on: Escherichia coli expressing NDM-1 (CLB30005, CLB30016); format: cell-based; details: with imipenem 1 μg/ml; 95% inhibition of bacterial growth
Procedure, shortened: as §3

[5] = tested on: Klebsiella pneumoniae expressing VIM-1 (IHMA599644); format: cell-based; details: with imipenem 1 μg/ml; 95% inhibition of bacterial growth
Procedure, shortened: as §3

NDM-1 = NDM-1 (Klebsiella pneumoniae, UniProt C7C422); assay: biochemical; format: biochemical; details: CCF2-FA substrate, 2 hours at 25° C; read-out: NDM-1 IC50
Procedure, shortened: as §2

IMP-1 = IMP-1 (Serratia marcescens, UniProt P52699); assay: biochemical; format: biochemical; details: CCF2-FA substrate, 2 hours at 25° C; read-out: IMP-1 IC50
Procedure, shortened: as §2

Chain of NDM-1 (C7C422 whole entry, looked up, species assumed): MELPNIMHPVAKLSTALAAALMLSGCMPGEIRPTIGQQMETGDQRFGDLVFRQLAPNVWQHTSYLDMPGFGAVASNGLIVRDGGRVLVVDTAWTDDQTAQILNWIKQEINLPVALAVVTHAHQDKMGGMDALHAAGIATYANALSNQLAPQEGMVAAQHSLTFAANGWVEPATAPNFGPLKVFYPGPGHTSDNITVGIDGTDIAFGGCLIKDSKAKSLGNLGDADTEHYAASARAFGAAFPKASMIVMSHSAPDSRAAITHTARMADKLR
Chain of IMP-1 (P52699 whole entry, looked up, species assumed): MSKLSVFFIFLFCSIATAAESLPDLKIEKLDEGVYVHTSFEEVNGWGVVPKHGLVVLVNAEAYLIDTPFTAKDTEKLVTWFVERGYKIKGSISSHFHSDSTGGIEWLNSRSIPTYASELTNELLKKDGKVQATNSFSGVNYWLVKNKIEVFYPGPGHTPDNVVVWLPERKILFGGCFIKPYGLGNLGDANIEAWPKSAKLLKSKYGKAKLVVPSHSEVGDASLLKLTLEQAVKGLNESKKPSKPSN

Compound | P. aeruginosa expressing IMP-1, efflux− (MB9799) MITC95 [1] [µM] | P. aeruginosa expressing IMP-1, efflux+ (MB9798) MITC95 [2] [µM] | Efflux ratio [2] | IC50 (VIM-1) [nM] | Serratia marcescens expressing IMP-1 (CL5741) MITC95 [3] [µM] | Escherichia coli expressing NDM-1 (CLB30016) MITC95 [4] [µM] | Klebsiella pneumoniae expressing VIM-1 (IHMA599644) MITC95 [5] [µM] | IC50 (NDM-1) [nM] | IC50 (IMP-1) [nM]
NCCCS(=O)(=O)c1ccc(-c2cccc3sc(N)nc23)c(-c2nn[nH]n2)c1S(N)(=O)=O [Example 194, 3-(2-aminobenzo[d]thiazol-4-yl)-6-(3-aminopropylsulfonyl)-2-(2H-tetrazol-5-yl)benzenesulfonamide] | 0.7813 | 0.3906 | 0.50 | 0.208 | 0.7813 | 0.7813 | 1.563 | 0.0908 | 0.154
Cn1c(N)nc2c(-c3ccc(S(=O)(=O)CCCN)c(S(N)(=O)=O)c3-c3nn[nH]n3)cccc21 [Example 195, 3-(2-amino-1-methyl-1H-benzo[d]imidazol-4-yl)-6-(3-aminopropylsulfonyl)-2-(2H-tetrazol-5-yl)benzenesulfonamide] | 0.7813 | 0.7813 | 1.00 | 0.155 | 0.7813 | 0.3906 | 1.563 | 0.26 | 0.251
N#Cc1cccc(-c2ccc(S(=O)(=O)C3CNC3)c(S(N)(=O)=O)c2-c2nn[nH]n2)c1N [Example 196, 2′-amino-4-(azetidin-3-ylsulfonyl)-3′-cyano-2-(2H-tetrazol-5-yl)-[1,1′-biphenyl]-3-sulfonamide] | 0.7813 | 12.5 | 16.00 | 0.233 | 1.563 | 0.7813 | 1.563 | 0.315 | 1.54
COC(=O)c1cccc(-c2ccc(S(=O)(=O)CCN)c(S(N)(=O)=O)c2-c2nn[nH]n2)c1N [Example 197, methyl 2-amino-4′-((2-aminoethyl)sulfonyl)-3′-sulfamoyl-2′-(2H-tetrazol-5-yl)-[1,1′-biphenyl]-3-carboxylate] | 1.563 | 12.5 | 8.00 | 0.262 | 1.563 | 0.7813 | 3.125 | 0.556 | 0.554
NCCS(=O)(=O)c1ccc(-c2cccc3[nH]cnc23)c(-c2nn[nH]n2)c1S(N)(=O)=O [Example 198, 6-((2-aminoethyl)sulfonyl)-3-(1H-benzo[d]imidazol-4-yl)-2-(2H-tetrazol-5-yl)benzenesulfonamide] | 0.7813 | 0.7813 | 1.00 | 0.206 | 1.563 | 0.7813 | 1.563 | 0.238 | 0.374
NCCS(=O)(=O)c1ccc(-c2cccc(C(=O)O)c2N)c(-c2nn[nH]n2)c1S(N)(=O)=O [Example 199, 2-Amino-4′-((2-aminoethyl)sulfonyl)-3′-sulfamoyl-2′-(2H-tetrazol-5-yl)-[1,1′-biphenyl]-3-carboxylic Acid] | 6.25 | 12.5 | 2.00 | 0.646 | 12.5 | 6.25 | 25 | 0.197 | 1.84
NS(=O)(=O)c1c(S(=O)(=O)C2CNC2)ccc(-c2ccnc3[nH]nnc23)c1-c1nn[nH]n1 [Example 200, 3-(3H-[1,2,3]triazolo[4,5-b]pyridin-7-yl)-6-(azetidin-3-ylsulfonyl)-2-(2H-tetrazol-5-yl)benzenesulfonamide] | 25 | 100 | 4.00 | 21.6 | 25 | 25 | 100 | 5.65 | 13.7
NS(=O)(=O)c1c(S(=O)(=O)C2CNC2)ccc(-c2cccc3scnc23)c1-c1nn[nH]n1 [Example 201, 6-(Azetidin-3-ylsulfonyl)-3-(benzo[d]thiazol-4-yl)-2-(2H-tetrazol-5-yl)benzenesulfonamide] | 0.7813 | 1.563 | 2.00 | 0.176 | 1.563 | 0.7813 | 3.125 | 0.0956 | 0.153
NCCS(=O)(=O)c1ccc(-c2cccc3c2nc(N)n3C2CNC2)c(-c2nn[nH]n2)c1S(N)(=O)=O [Example 202, 3-(2-amino-1-(azetidin-3-yl)-1H-benzo[d]imidazol-4-yl)-6-((2-aminoethyl)sulfonyl)-2-(2H-tetrazol-5-yl)benzenesulfonamide] | 1.563 | 6.25 | 4.00 | 1.1 | 3.125 | 1.563 | 3.125 | 2.92 | 0.859
NC1CCC(c2ccc(S(=O)(=O)CC3CNC3)c(S(N)(=O)=O)c2-c2nnn[nH]2)CC1 (stereo not drawn) [Example 203, 3-(4-aminocyclohexyl)-6-((azetidin-3-ylmethyl)sulfonyl)-2-(1H-tetrazol-5-yl)benzenesulfonamide] | 0.7813 | 3.125 | 4.00 | 0.591 | 1.563 | 3.125 | 1.563 | 11.2 | 22.9
NS(=O)(=O)c1c(S(=O)(=O)CC2CNC2)ccc([C@H]2CC[C@H](N)CC2)c1-c1nnn[nH]1 [Example 204, 3-((1r,4r)-4-aminocyclohexyl)-6-((azetidin-3-ylmethyl)sulfonyl)-2-(1H-tetrazol-5-yl)benzenesulfonamide] | 0.7813 | 1.563 | 2.00 | 1.04 | 1.563 | 0.7813 | 1.563 | 16.2 | 37.5
NS(=O)(=O)c1c(S(=O)(=O)CC2CNC2)ccc([C@H]2CC[C@@H](N)CC2)c1-c1nnn[nH]1 [Example 205, 3-((1s, 4s)-4-aminocyclohexyl)-6-((azetidin-3-ylmethyl)sulfonyl)-2-(1H-tetrazol-5-yl)benzenesulfonamide] | 3.125 | 6.25 | 2.00 | 6.64 | 3.125 | 1.563 | 3.125 | 44.6 | 82.5
NC1CCC(c2ccc(S(=O)(=O)C3CCNCC3)c(S(N)(=O)=O)c2-c2nnn[nH]2)CC1 (stereo not drawn) [Example 206, 3-(4-aminocyclohexyl)-6-(piperidin-4-ylsulfonyl)-2-(1H-tetrazol-5-yl) benzenesulfonamide] | 1.563 | 3.125 | 2.00 | 0.857 | 3.125 | 6.25 | 3.125 | 20.3 | 23.5
